Where a name gives a salt, the structure may show the parent alone.

The target of one assay is T1, DYRK2 kinase (Homo sapiens, UniProt Q92630).
T1 sequence (Q92630 1-601): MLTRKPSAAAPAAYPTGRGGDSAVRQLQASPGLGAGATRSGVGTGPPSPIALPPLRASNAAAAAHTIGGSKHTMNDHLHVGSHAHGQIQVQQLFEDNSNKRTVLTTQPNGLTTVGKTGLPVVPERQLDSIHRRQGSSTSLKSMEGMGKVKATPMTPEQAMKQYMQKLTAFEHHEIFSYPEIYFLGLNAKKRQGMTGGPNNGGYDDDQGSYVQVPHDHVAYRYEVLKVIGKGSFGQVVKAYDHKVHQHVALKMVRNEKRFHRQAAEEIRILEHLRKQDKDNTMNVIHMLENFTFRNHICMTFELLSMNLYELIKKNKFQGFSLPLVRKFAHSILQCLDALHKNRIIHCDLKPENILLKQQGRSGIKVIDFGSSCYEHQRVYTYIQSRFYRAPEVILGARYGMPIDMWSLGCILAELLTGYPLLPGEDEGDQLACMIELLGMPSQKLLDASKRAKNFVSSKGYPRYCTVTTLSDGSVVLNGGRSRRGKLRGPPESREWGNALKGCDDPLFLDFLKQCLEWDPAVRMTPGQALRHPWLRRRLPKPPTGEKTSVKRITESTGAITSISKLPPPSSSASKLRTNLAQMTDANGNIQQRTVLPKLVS
As to the kind of experiment: DYRK2 kinase activity analysis assay (33P-ATP, DYRKtide substrate, P81 filter paper). The format is biochemical. To be noted: 2 hours at room temperature, read-out: IC50.
In the case of `Cc1cnc(Nc2ccc(CN3CCN(C(C)C)CC3)cn2)nc1-c1ccc2scnc2c1` [Example 1, 4-(benzothiazole-5-yl)-N-(5-((4-isopropylpiperazine-1-yl)methyl)pyridine-2-yl)-5-methylpyri midine-2-amine], the IC50 was 1470 nM.

For the compound `Cc1cnc(Nc2ccc(CN3CCNCC3)cn2)nc1-c1ccc2scnc2c1` [Example 2, hydrochloride], the IC50 was determined as 1420 nM.

With `CCN1CCN(C(=O)c2ccc(Nc3ncc(C)c(-c4ccc5scnc5c4)n3)nc2)CC1` [Example 3, (6-((4-(benzothiazole-5-yl)-5-methylpyrimidine-2-yl)amino)pyridine-3-yl)(4-ethylpiperazine-1-yl)ketone], the IC50 stood at 498 nM.

For the compound `Cc1cnc(Nc2ccc(C(=O)N3CCN(C(=O)OC(C)(C)C)CC3)cn2)nc1-c1ccc2scnc2c1` [Example 4, tert-butyl 4-(6-((4-(benzothiazole-5-yl)-5-methylpyrimidine-2-yl)amino)nicotinoyl)piperazine-1-carboxylate], the IC50 amounted to 268 nM.

With `Cc1cnc(Nc2ccc(C(=O)N3CCNCC3)cn2)nc1-c1ccc2scnc2c1` [Example 5, (6-((4-(benzothiazole-5-yl)-5-methylpyrimidine-2-yl)amino)pyridine-3-yl)(piperazine-1-yl)ketone hydrochloride], the IC50 was found to be 357 nM.

Take `COc1cnc(Nc2ccc(C(=O)N3CCNCC3)cn2)nc1-c1ccc2scnc2c1` [Example 6, (6-((4-(benzothiazole-5-yl)-5-methoxypyrimidine-2-yl)amino)pyridine-3-yl)(piperazine-1-yl)k etone hydrochloride]: the IC50 came to 774 nM.

Consider `COc1cnc(Nc2ccc(CN3CCNCC3)cn2)nc1-c1ccc2scnc2c1` [Example 7, 4-(benzothiazole-5-yl)-5-methoxy-N-(5-(piperazine-1-ylmethyl)pyridine-2-yl)pyrimidine-2-amine hydrochloride], for which the IC50 was 779 nM.

Consider `c1cc(-c2ccc3scnc3c2)nc(Nc2ccc(CN3CCNCC3)cn2)n1` [Example 8, 4-(benzothiazole-5-yl)-N-(5-(piperazine-1-methylene)pyridine-2-yl)pyrimidine-2-amine hydrochloride], for which the IC50 was found to be 636 nM.

For `CCN1CCN(C(=O)c2ccc(Nc3nccc(-c4ccc5scnc5c4)n3)nc2)CC1` [Example 9, (6-((4-(benzothiazole-5-yl)pyrimidine-2-yl)amino)pyridine-3-yl)(4-ethylpiperazine-1-yl)ketone], the IC50 was 67 nM.

Turning to `CC(C)(C)OC(=O)N1CCN(C(=O)c2ccc(Nc3nccc(-c4ccc5scnc5c4)n3)nc2)CC1` [Example 10, tert-butyl 4-(6-((4-(benzothiazole-5-yl)pyrimidine-2-yl)amino)nicotinoyl)piperazine-1-carboxylate], the IC50 came out at 99 nM.

For the compound `O=C(c1ccc(Nc2nccc(-c3ccc4scnc4c3)n2)nc1)N1CCNCC1` [Example 11, (6-((4-(benzothiazole-5-yl)pyrimidine-2-yl)amino)pyridine-3-yl)(piperazine-1-yl)ketone hydrochloride], the IC50 is 190 nM.

Turning to `CCN1CCN(Cc2ccc(Nc3ncc(F)c(-c4ccc5scnc5c4)n3)nc2)CC1` [Example 12], the IC50 was determined as 430 nM.

Regarding `Fc1cnc(Nc2ccc(CN3CCNCC3)cn2)nc1-c1ccc2scnc2c1` [Example 13, 4-(benzothiazole-5-yl)-5-fluoro-N-(5-(piperazine-1-methylene)pyridine-2-yl)pyrimidine-2-amine hydrochloride], the IC50 turned out to be 216 nM.

For the compound `CCN1CCN(C(=O)c2ccc(Nc3ncc(F)c(-c4ccc5scnc5c4)n3)nc2)CC1` [Example 14, (6-((4-(benzothiazole-5-yl)-5-fluoropyrimidine-2-yl)amino)pyridine-3-yl)(4-ethylpiperazine-1-yl)ketone], the IC50 came to 22 nM.

For `CC(=O)N1CCN(C(=O)c2ccc(Nc3ncc(F)c(-c4ccc5scnc5c4)n3)nc2)CC1` [Example 15, 1-(4-(6-((4-(benzothiazole-5-yl)-5-fluoropyrimidine-2-yl)amino)nicotinoyl)piperazine-1-yl)ethyl-1-one], the IC50 came out at 28 nM.

`O=C(c1ccc(Nc2ncc(F)c(-c3ccc4scnc4c3)n2)nc1)N1CCN(c2ccccc2)CC1` [Example 17, (6-((4-(benzothiazole-5-yl)-5-fluoropyrimidine-2-yl)amino)pyridine-3-yl)(4-phenylpiperazine-1-yl)ketone]: the IC50 is 56 nM.

On to `CCOC(=O)N1CCN(C(=O)c2ccc(Nc3ncc(F)c(-c4ccc5scnc5c4)n3)nc2)CC1` [Example 18, ethyl 4-(6-((4-(benzothiazole-5-yl)-5-fluoropyrimidine-2-yl)amino)nicotinoyl) piperazine-1-carboxylate], for which the IC50 came to 29 nM.

As to `CC(C)(C)OC(=O)N1CCN(C(=O)c2ccc(Nc3ncc(F)c(-c4ccc5scnc5c4)n3)nc2)CC1` [Example 19, tert-butyl 4-(6-((4-(benzothiazole-5-yl)-5-fluoropyrimidine-2-yl)amino)nicotinoyl)piperazine-1-carboxylate], the IC50 is 70 nM.

Take `CCN1CCN(C(=O)c2cnc(Nc3ncc(F)c(-c4ccc5scnc5c4)n3)nc2)CC1` [Example 21, (2-((4-(benzothiazole-5-yl)-5-fluoropyrimidine-2-yl)amino)pyrimidine-5-yl)(4-ethylpiperazine-1-yl)ketone]: the IC50 came out at 1050 nM.

For the compound `CC(C)(C)OC(=O)N1CCN(C(=O)c2cnc(Nc3ncc(F)c(-c4ccc5scnc5c4)n3)nc2)CC1` [Example 22, tert-butyl 4-(2-((4-(benzothiazole-5-yl)-5-fluoropyrimidine-2-yl)amino)pyrimidine-5-carbonyl)piperazine-1-c arboxylate], the IC50 worked out at 535 nM.

Consider `O=C(c1cnc(Nc2ncc(F)c(-c3ccc4scnc4c3)n2)nc1)N1CCNCC1` [Example 23, (2-((4-(benzothiazole-5-yl)-5-fluoropyrimidine-2-yl)amino)pyrimidine-5-yl)(piperazine-1-yl)k etone hydrochloride], for which the IC50 turned out to be 695 nM.

With `CCN1CCN(C(=O)c2ccc(Nc3ncc(F)c(-c4ccc5scnc5c4)n3)cn2)CC1` [Example 24, (5-((4-(benzothiazole-5-yl)-5-fluoropyrimidine-2-yl)amino)pyridine-2-yl)(4-ethylpiperazine-1-yl)ketone], the IC50 is 15 nM.

For `CC(C)(C)OC(=O)N1CCN(c2ccc(Nc3ncc(F)c(-c4ccc5scnc5c4)n3)cn2)CC1` [Example 25, tert-butyl 4-(5-((4-(benzothiazole-5-yl)-5-fluoropyrimidine-2-yl)amino)pyridine-2-yl)piperazine-1-carboxylate], the IC50 was 16 nM.

On to `O=C(c1ccc(Nc2ncc(F)c(-c3ccc4scnc4c3)n2)cn1)N1CCNCC1` [Example 26, (5-((4-(benzothiazole-5-yl)-5-fluoropyrimidine-2-yl)amino)pyridine-2-yl)(piperazine-1-yl)ketone hydrochloride], for which the IC50 is 4 nM.

As to `CN(C)c1nc2cc(-c3nc(Nc4ccc(C(=O)N5CCNCC5)cn4)ncc3F)ccc2s1` [Example 27, (6-((4-(2-(dimethylamino)benzothiazole-5-yl)-5-fluoropyrimidine-2-yl)amino)pyridine-3-yl)(piperazine-1-yl)ketone hydrochloride], the IC50 was determined as 18 nM.

In the case of `CCN(CC)c1nc2cc(-c3nc(Nc4ccc(C(=O)N5CCNCC5)cn4)ncc3F)ccc2s1` [Example 28, (6-((4-(2-(diethylamino)benzothiazole-5-yl)-5-fluoropyrimidine-2-yl)amino)pyridine-3-yl)(piperazine-1-yl)ketone hydrochloride], the IC50 was found to be 35 nM.

Take `CCN1CCN(C(=O)c2ccc(Nc3ncc(F)c(-c4ccc5sc(N(C)C)nc5c4)n3)cn2)CC1` [Example 29, (5-((4-(2-(dimethylamino)benzothiazole-5-yl)-5-fluoropyrimidine-2-yl)amino)pyridine-2-yl)(4-ethylpiperazine-1-yl)ketone]: the IC50 worked out at 11 nM.

With `CC(C)N1CCN(C(=O)c2ccc(Nc3ncc(F)c(-c4ccc5sc(N(C)C)nc5c4)n3)cn2)CC1` [Example 30, (5-((4-(2-(dimethylamino)benzothiazole-5-yl)-5-fluoropyrimidine-2-yl)amino)pyridine-2-yl)(4-isopropylpiperazine-1-yl)ketone], the IC50 was 13 nM.

For the compound `CN(C)c1nc2cc(-c3nc(Nc4ccc(C(=O)N5CCNCC5)nc4)ncc3F)ccc2s1` [Example 32, (5-((4-(2-(dimethylamino)benzothiazole-5-yl)-5-fluoropyrimidine-2-yl)amino)pyridine-2-yl)(piperazine-1-yl)ketone hydrochloride], the 50% inhibitory concentration (IC50) is 9 nM.

`CCN1CCN(C(=O)c2ccc(Nc3ncc(F)c(-c4ccc5sc(N(CC)CC)nc5c4)n3)cn2)CC1` [Example 33, (5-((4-(2-(diethylamino)benzothiazole-5-yl)-5-fluoropyrimidine-2-yl)amino)pyridine-2-yl)(4-ethylpiperazine-1-yl)ketone]: the IC50 is 29 nM.

Staying with this assay, now noted: IC50 (nM), 2 hours at room temperature.
`CN(C)c1nc2cc(-c3nc(Nc4ccc(C(=O)N5CCN(C(=O)OC(C)(C)C)CC5)nc4)ncc3F)ccc2s1` [Example 31] had an IC50 of 590 nM.
